Measurements taken from the NIST ThermoML archive (doi:10.1021/acs.jced.5b01057).
± gives the expanded uncertainty stated by the source.

Tests used:
[1] = Crystal; visual observation
[2] = mn = molality of the nth substance listed, in mol/kg; details: for surface tension liquid-gas: Pendant drop shape; for electrical conductivity: 100 kPa, Liquid, Alternating current cell with electrodes

CCCCCCCCCCCCNC1O[C@H](CO)[C@@H](O[C@@H]2O[C@H](CO)[C@H](O)[C@H](O)[C@H]2O)[C@H](O)[C@H]1O (some centres undefined) [N-dodecyllactosylamine]
Details | Triple point temperature [K]
[1] | 398.65 ± 0.5

CCCCCCCCCCCC[NH2+]C1O[C@H](CO)[C@@H](O[C@@H]2O[C@H](CO)[C@H](O)[C@H](O)[C@H]2O)[C@H](O)[C@H]1O.CCCCCCCCCCCC[NH2+]C1O[C@H](CO)[C@@H](O[C@@H]2O[C@H](CO)[C@H](O)[C@H](O)[C@H]2O)[C@H](O)[C@H]1O.O=C([O-])CCCCC(=O)[O-] (some centres undefined) [N-dodecyllactosylammonium hexanedioate] + O
[2]
Details | electrical conductivity [S/m] | surface tension liquid-gas [mN/m]
298.15 K, m1 = 0.0005 | – | 65.42 ± 1.4
298.15 K, m1 = 0.001 | – | 57.54 ± 1.2
298.15 K, m1 = 0.0015 | – | 52.44 ± 1.1
298.15 K, m1 = 0.00159 | 0.00604 ± 0.00061 | –
298.15 K, m1 = 0.002 | – | 48.72 ± 1.1
298.15 K, m1 = 0.0025 | – | 46.11 ± 1
298.15 K, m1 = 0.003 | – | 43.65 ± 0.95
298.15 K, m1 = 0.00317 | 0.0113 ± 0.0011 | –
298.15 K, m1 = 0.00396 | 0.0137 ± 0.0014 | –
298.15 K, m1 = 0.004 | – | 39.6 ± 0.87
298.15 K, m1 = 0.00474 | 0.0159 ± 0.0016 | –
298.15 K, m1 = 0.005 | – | 36.39 ± 0.8
298.15 K, m1 = 0.00552 | 0.0182 ± 0.0019 | –
298.15 K, m1 = 0.006 | – | 34.24 ± 0.75
298.15 K, m1 = 0.0063 | 0.0212 ± 0.0022 | –
298.15 K, m1 = 0.007 | – | 33.1 ± 0.73
298.15 K, m1 = 0.00707 | 0.023 ± 0.0023 | –
323.15 K, m1 = 0.0004 | – | 62.97 ± 1.4
323.15 K, m1 = 0.0006 | – | 58.09 ± 1.3
323.15 K, m1 = 0.001 | – | 52.58 ± 1.1
323.15 K, m1 = 0.0014 | – | 47.88 ± 1
323.15 K, m1 = 0.00159 | 0.00898 ± 0.00091 | –
323.15 K, m1 = 0.002 | – | 43.86 ± 0.96
323.15 K, m1 = 0.0024 | – | 41.18 ± 0.9
323.15 K, m1 = 0.003 | – | 38.37 ± 0.84
323.15 K, m1 = 0.00317 | 0.0165 ± 0.0017 | –
323.15 K, m1 = 0.004 | – | 35.16 ± 0.77
323.15 K, m1 = 0.00474 | 0.0258 ± 0.0026 | –
323.15 K, m1 = 0.005 | – | 32.73 ± 0.72
323.15 K, m1 = 0.0063 | 0.0334 ± 0.0034 | –

CCCCCC(=O)[O-].CCCCCCCCCCCC[NH2+]C1O[C@H](CO)[C@@H](O[C@@H]2O[C@H](CO)[C@H](O)[C@H](O)[C@H]2O)[C@H](O)[C@H]1O (some centres undefined) [N-dodecyllactosylammonium hexanoate] + O
[2], 323.15 K
Details | electrical conductivity [S/m] | surface tension liquid-gas [mN/m]
m1 = 0.4 | 0.001851 ± 1e-06 | 58.74 ± 0.71
m1 = 0.6 | – | 52.11 ± 0.65
m1 = 0.79 | 0.00335 ± 1e-05 | –
m1 = 0.8 | – | 48.69 ± 0.62
m1 = 1 | – | 45.57 ± 0.59
m1 = 1.19 | 0.0048 ± 1e-05 | –
m1 = 1.57 | 0.00609 ± 1e-05 | –
m1 = 1.6 | – | 37.41 ± 0.52
m1 = 1.96 | 0.00734 ± 1e-05 | –
m1 = 2 | – | 34.64 ± 0.49
m1 = 2.34 | 0.00864 ± 1e-05 | –
m1 = 2.4 | – | 32.22 ± 0.47
m1 = 2.72 | 0.00986 ± 1e-05 | –
m1 = 3 | – | 30.32 ± 0.45
m1 = 3.1 | 0.01083 ± 1e-05 | –

CCCCCCCCCCCC[NH2+]C1O[C@H](CO)[C@@H](O[C@@H]2O[C@H](CO)[C@H](O)[C@H](O)[C@H]2O)[C@H](O)[C@H]1O.CCCCCCCCCCCC[NH2+]C1O[C@H](CO)[C@@H](O[C@@H]2O[C@H](CO)[C@H](O)[C@H](O)[C@H]2O)[C@H](O)[C@H]1O.O=C([O-])CC(=O)[O-] (some centres undefined) [N-dodecyllactosylammonium propanedioate] + O
[2]
Details | electrical conductivity [S/m] | surface tension liquid-gas [mN/m]
298.15 K, m1 = 0.0005 | – | 68.12 ± 1.5
298.15 K, m1 = 0.001 | – | 61.14 ± 1.3
298.15 K, m1 = 0.0015 | – | 55.99 ± 1.2
298.15 K, m1 = 0.00159 | 0.00597 ± 0.00061 | –
298.15 K, m1 = 0.002 | – | 51.91 ± 1.1
298.15 K, m1 = 0.0025 | – | 47.5 ± 1
298.15 K, m1 = 0.003 | – | 44.9 ± 0.98
298.15 K, m1 = 0.00317 | 0.0115 ± 0.0012 | –
298.15 K, m1 = 0.004 | – | 40.37 ± 0.88
298.15 K, m1 = 0.00474 | 0.0168 ± 0.0017 | –
298.15 K, m1 = 0.005 | – | 35.39 ± 0.78
298.15 K, m1 = 0.00552 | 0.0194 ± 0.002 | –
298.15 K, m1 = 0.006 | – | 32.88 ± 0.73
298.15 K, m1 = 0.0063 | 0.0227 ± 0.0023 | –
298.15 K, m1 = 0.007 | – | 30.63 ± 0.68
298.15 K, m1 = 0.00707 | 0.0251 ± 0.0026 | –
298.15 K, m1 = 0.00784 | 0.0271 ± 0.0027 | –
298.15 K, m1 = 0.008 | – | 28.97 ± 0.64
298.15 K, m1 = 0.00861 | 0.0288 ± 0.0029 | –
323.15 K, m1 = 0.0004 | – | 65.73 ± 1.4
323.15 K, m1 = 0.0006 | – | 62.69 ± 1.4
323.15 K, m1 = 0.0008 | – | 59.26 ± 1.3
323.15 K, m1 = 0.001 | – | 56.85 ± 1.2
323.15 K, m1 = 0.0014 | – | 52.69 ± 1.1
323.15 K, m1 = 0.00159 | 0.00958 ± 0.00097 | –
323.15 K, m1 = 0.002 | – | 47.4 ± 1
323.15 K, m1 = 0.0024 | – | 44.7 ± 0.98
323.15 K, m1 = 0.003 | – | 41.32 ± 0.9
323.15 K, m1 = 0.00317 | 0.0164 ± 0.0017 | –
323.15 K, m1 = 0.004 | – | 37.19 ± 0.82
323.15 K, m1 = 0.00474 | 0.0257 ± 0.0026 | –
323.15 K, m1 = 0.005 | – | 33.3 ± 0.73
323.15 K, m1 = 0.006 | – | 30.53 ± 0.68
323.15 K, m1 = 0.0063 | 0.0329 ± 0.0033 | –
323.15 K, m1 = 0.007 | – | 28.43 ± 0.63
323.15 K, m1 = 0.00784 | 0.0387 ± 0.0039 | –
323.15 K, m1 = 0.008 | – | 26.79 ± 0.6

CCC(=O)[O-].CCCCCCCCCCCC[NH2+]C1O[C@H](CO)[C@@H](O[C@@H]2O[C@H](CO)[C@H](O)[C@H](O)[C@H]2O)[C@H](O)[C@H]1O (some centres undefined) [N-dodecyllactosylammonium propanoate] + O
[2], 323.15 K
Details | electrical conductivity [S/m] | surface tension liquid-gas [mN/m]
m1 = 0.2 | 0.001042 ± 1e-06 | 67.63 ± 0.79
m1 = 0.3 | – | 63.03 ± 0.74
m1 = 0.4 | 0.001921 ± 1e-06 | 58.77 ± 0.71
m1 = 0.5 | – | 53.31 ± 0.65
m1 = 0.6 | 0.00272 ± 1e-05 | 50.73 ± 0.63
m1 = 0.7 | – | 45.91 ± 0.58
m1 = 0.79 | 0.00355 ± 1e-05 | –
m1 = 0.8 | – | 42.76 ± 0.55
m1 = 0.9 | – | 39.81 ± 0.52
m1 = 0.99 | 0.00435 ± 1e-05 | –
m1 = 1 | – | 37.73 ± 0.5
m1 = 1.1 | – | 35.61 ± 0.48
m1 = 1.19 | 0.00512 ± 1e-05 | –
m1 = 1.2 | – | 34.86 ± 0.48

O [water] + CCC(=O)[O-].CCCCCCCCCCCC[NH2+]C1O[C@H](CO)[C@@H](O[C@@H]2O[C@H](CO)[C@H](O)[C@H](O)[C@H]2O)[C@H](O)[C@H]1O
[2], 323.15 K, m2 = 0
Details | electrical conductivity [S/m] | surface tension liquid-gas [mN/m]
– | 0.0001534 ± 1e-07 | 68.57 ± 0.79

O [water] + CCCCCC(=O)[O-].CCCCCCCCCCCC[NH2+]C1O[C@H](CO)[C@@H](O[C@@H]2O[C@H](CO)[C@H](O)[C@H](O)[C@H]2O)[C@H](O)[C@H]1O
[2], 323.15 K, m2 = 0
Details | electrical conductivity [S/m] | surface tension liquid-gas [mN/m]
– | 0.000255 ± 1e-06 | 68.72 ± 0.79

O [water] + CCCCCCCCCCCC[NH2+]C1O[C@H](CO)[C@@H](O[C@@H]2O[C@H](CO)[C@H](O)[C@H](O)[C@H]2O)[C@H](O)[C@H]1O.CCCCCCCCCCCC[NH2+]C1O[C@H](CO)[C@@H](O[C@@H]2O[C@H](CO)[C@H](O)[C@H](O)[C@H]2O)[C@H](O)[C@H]1O.O=C([O-])CC(=O)[O-]
[2], m2 = 0
Details | surface tension liquid-gas [mN/m]
298.15 K | 71.76 ± 1.6
323.15 K | 68.05 ± 1.5

O [water] + CCCCCCCCCCCC[NH2+]C1O[C@H](CO)[C@@H](O[C@@H]2O[C@H](CO)[C@H](O)[C@H](O)[C@H]2O)[C@H](O)[C@H]1O.CCCCCCCCCCCC[NH2+]C1O[C@H](CO)[C@@H](O[C@@H]2O[C@H](CO)[C@H](O)[C@H](O)[C@H]2O)[C@H](O)[C@H]1O.O=C([O-])CCCCC(=O)[O-]
[2], m2 = 0
Details | surface tension liquid-gas [mN/m]
298.15 K | 72.71 ± 1.6
323.15 K | 68.94 ± 1.5
